# Laboratory results as given in PMC8999917, “Structure–Activity Relationship of Synthetic Ginkgolic Acid Analogs for Treating Type 2 Diabetes by PTPN9 Inhibition” (International Journal of Molecular Sciences, 2022).
# Target: T1, GPR120 (Homo sapiens, UniProt Q5NUL3)
# T1 construct: host or cells: CHO cells
# T1 sequence (Q5NUL3 1-361): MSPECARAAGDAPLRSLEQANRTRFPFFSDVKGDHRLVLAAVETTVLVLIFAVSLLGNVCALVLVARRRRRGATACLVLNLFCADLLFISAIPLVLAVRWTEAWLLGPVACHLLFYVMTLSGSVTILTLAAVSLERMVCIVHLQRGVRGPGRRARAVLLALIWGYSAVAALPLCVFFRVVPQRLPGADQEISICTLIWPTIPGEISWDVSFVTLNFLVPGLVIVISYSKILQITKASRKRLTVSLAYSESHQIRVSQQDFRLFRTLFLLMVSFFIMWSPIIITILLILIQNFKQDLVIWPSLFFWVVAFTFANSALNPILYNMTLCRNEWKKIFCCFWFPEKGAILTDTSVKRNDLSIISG
# Test: GPR120 SRE-Luc reporter gene assay in CHO cells
# Type: cell-based
# Conditions: 50 μM
# Description: Glucose uptake is regulated by three major mechanisms. First, through the activation of the Akt pathway, which promotes GLUT4 translocation via the activation of the signaling cascade involving the insulin receptor substrate (IRS) family and PI3 kinase through […] or G-protein-coupled receptors (GPCRs); second, through the upregulation of AMPK phosphorylation, which increases glucose uptake by inducing GLUT4 translocation to the plasma membrane; third, through the promotion of GLUT4 expression by PPARγ ligands. […] However, these compounds may induce GLUT4 expression and improve insulin sensitivity in the treated cells through their interactions with GPCR and/or PPARγ. Among GPCRs highly expressed in 3T3-L1 adipocytes and C2C12 muscle cells, GPR120 is the receptor that is most closely associated with glucose uptake. […] This was performed following a previously described method. In brief, CHO cells were plated to 96-well white plates (REF3610, Corning Life Sciences, NY, USA) in DMEM (HyClone^TM, Cytivalifescience, Seoul, Korea) supplemented with 10% FBS and 1% penicillin at a density of 1.5 × 10^4 cells/well. […] After incubation for another 24 h, luciferase activity was measured using the dual-luciferase assay system (Promega Korea, Seoul, Korea) according to the manufacturer’s instructions. […]
row,SMILES,GPR120 transcriptional activity (SRE-Luc)
1,CCCCCCCCCCCCCOc1cccc(O)c1C(=O)O [Compound 1e],No significant change
2,CCCCCCCCCCCCCCCOc1cccc(O)c1C(=O)O [Compound 1f],No significant change
